Holding throughout (format): cell-based
The test system of assay [1] is B16F10 (malignant melanoma). Nature of the assay: Antiproliferative activity (CCK-8 cell viability), B16F10. To be noted: Mus musculus, 72 h, read-out: Antiproliferative activity in cancerous cells, B16F10 (inhibition of cell growth); for inhibition at 3.3 µM: B16-F10, Compound concentration: 3.3 μM; for inhibition at 10 µM: B16-F10, Compound concentration: 10 μM. In a few lines:
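Attached B16F10 cells in 96-well plates were incubated with compound at 37° C for 72 h, followed by 10 μL CCK-8 reagent per well and a further 4 h incubation. A multi-well plate reader measured absorbance at 450 nm. Percent viability across replicates was calculated against DMSO vehicle-treated cells.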

Assay [2] relates to alpha-smooth muscle actin (α-SMA). Nature of the assay: Inhibition of TGF-β induced expression of alpha-smooth muscle actin (α-SMA) in CFSC cells (western blot). The note with it: compound at 10 μM, TGF-β (10 ng/mL), 24 hours, band intensity vs TGF-β only. In short, it runs like this: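 Values are percent reduction of α-SMA band intensity relative to cells given TGF-β alone, quantified by Western blot densitometry with β-actin probed. Compound was applied at 10 μM alongside 10 ng/mL TGF-β to serum-free CFSC cultures for 24 h at 37 °C.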

The next assay relates to HepG2 (liver cancer). The assay can be described thus: Antiproliferative activity (CCK-8 cell viability), HepG2. To be noted: Homo sapiens, 72 h, read-out: Antiproliferative activity in cancerous cells, HepG2 (inhibition of cell growth); for inhibition at 3.3 µM: Compound concentration: 3.3 μM; for inhibition at 10 µM: Compound concentration: 10 μM. In short, it runs like this: (§1)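 Cells were seeded at 2,000-5,000/well (HeLa in MEM, HepG2 and SW480 in DMEM, A549 in F-12K, all with 10% FBS) and treated with compound at 3.3, 10 or 30 μM for 72 h at 37° C. CCK-8 was added for 4 h, absorbance was read at 450 nm, and viability was expressed relative to DMSO-treated wells.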

Assay [3] has as its system A549 (lung adenocarcinoma). The assay can be described thus: Antiproliferative activity (CCK-8 cell viability), A549. To be noted: Homo sapiens, 72 h, read-out: Antiproliferative activity in cancerous cells, A549 (inhibition of cell growth); for inhibition at 3.3 µM: Compound concentration: 3.3 μM; for inhibition at 10 µM: Compound concentration: 10 μM. In short, it runs like this: as §1

The next assay concerns HeLa (cervical cancer). The assay can be described thus: Antiproliferative activity (CCK-8 cell viability), HeLa. To be noted: Homo sapiens, 72 h, read-out: Antiproliferative activity in cancerous cells, HELA (inhibition of cell growth); for inhibition at 3.3 µM: Compound concentration: 3.3 μM; for inhibition at 10 µM: Compound concentration: 10 μM. In a few lines:
as §1

The next assay concerns SW480 (colon cancer). The assay can be described thus: Antiproliferative activity (CCK-8 cell viability), SW480. The note with it: Homo sapiens, 72 h, read-out: Antiproliferative activity in cancerous cells, SW480 (inhibition of cell growth); for inhibition at 3.3 µM: Compound concentration: 3.3 μM; for inhibition at 10 µM: Compound concentration: 10 μM. In a few lines: as §1

Assay [4] relates to A431 (epidermoid carcinoma). Nature of the assay: Antiproliferative activity (CCK-8 cell viability), A431. To be noted: Homo sapiens, 72 h, read-out: Antiproliferative activity in cancerous cells, A431 (inhibition of cell growth); for inhibition at 3.3 µM: A-431, Compound concentration: 3.3 μM; for inhibition at 10 µM: A-431, Compound concentration: 10 μM. In short, it runs like this: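 Cell viability of compound-treated A431 cells was measured with a Cell Counting Kit-8. Each well received 10 μL of CCK-8 after 72 h of compound exposure, followed by 4 h incubation at 37° C. and a 450 nm plate-reader measurement. Percent viability was calculated relative to DMSO controls across replicates.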

Assay [5] deals with MDA-MB-231 (breast cancer). Nature of the assay: Antiproliferative activity (CCK-8 cell viability), MDA-MB-231. The note with it: Homo sapiens, 72 h, read-out: Antiproliferative activity in cancerous cells, MDA-MB-231 (inhibition of cell growth); for inhibition at 3.3 µM: Compound concentration: 3.3 μM; for inhibition at 10 µM: Compound concentration: 10 μM. In a few lines:
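In this CCK-8 viability assay, MDA-MB-231 cells maintained in Dulbecco's modified Eagle's medium containing 10% fetal bovine serum were placed in 96-well plates (2,000-5,000 cells/well) and treated with compound for 72 h at 37° C. A 4 h incubation with 10 μL CCK-8 followed, plates were read at 450 nm, and viability was expressed against DMSO vehicle wells across replicates.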

As usually defined, the inhibition is the relative decrease from the control value, in per cent.

Turning to `CC1=C(CC(=O)O)c2c(F)cc(F)cc2/C1=C\c1cccc(C(F)(F)F)c1` [D6, (Z)-2-(4,6-Difluoro-2-methyl-1-(3-(trifluoromethyl)benzylidene)-1H-inden-3-yl)-acetic acid], the inhibition at 3.3 µM (in assay [1]; in the assay on HepG2 (liver cancer); in assay [3]; in the assay on HeLa (cervical cancer); with SW480 (colon cancer); in assay [4]) was under 30% each time. For the same compound, in assay [5], the inhibition at 3.3 µM was under 30%. For the same compound, the inhibition at 10 µM (in assay [1]; in assay [2]; in the assay on HepG2 (liver cancer); in assay [3]; with HeLa (cervical cancer); with SW480 (colon cancer)) was under 30% throughout. Further, the inhibition at 10 µM in assay [4] and in assay [5] was under 30% throughout. In addition, the inhibition at 30 µM in assay [1] (B16-F10, Compound concentration: 30 μM) is under 30%; with HepG2 (liver cancer) (Compound concentration: 30 μM) it was 30 to 50%; in assay [3] (Compound concentration: 30 μM), at least 50%; in the assay with HeLa (cervical cancer) (Compound concentration: 30 μM), at least 50%; with SW480 (colon cancer) (Compound concentration: 30 μM), 30 to 50%; in assay [4] (A-431, Compound concentration: 30 μM) it was under 30%. Further, the inhibition at 30 µM in assay [5] (Compound concentration: 30 μM) was at least 50%.
As to `CC(C)c1ccc(/C=C2/C(Cc3ccc(Oc4ccc(F)cc4)cc3)=C(CC(=O)O)c3cc(F)ccc32)cc1` [A103, (Z)-2-(5-Fluoro-2-(4-(4-fluorophenoxy)benzyl)-1-(4-isopropylbenzylidene)-1H-inden-3-yl)acetic acid], the inhibition at 3.3 µM (in assay [1]; with HepG2 (liver cancer); in assay [3]; in the assay with HeLa (cervical cancer); in the assay on SW480 (colon cancer); in assay [4]) was at least 50% in each case. Besides, the inhibition at 3.3 µM in assay [5] is at least 50%. In addition, the inhibition at 10 µM is at least 50% in assay [1]; over 80% in assay [2]; at least 50% in the assay on HepG2 (liver cancer); at least 50% in assay [3]; at least 50% in the assay on HeLa (cervical cancer); at least 50% in the assay with SW480 (colon cancer). For the same compound, the inhibition at 10 µM in assay [4] and in assay [5] was at least 50% in each case.
Turning to `O=C(O)CC1=C(Cc2ccc(Oc3ccc(F)cc3)cc2)/C(=C/C2CC2)c2ccc(F)cc21` [A106, (Z)-2-(1-(Cyclopropylmethylene)-5-fluoro-2-(4-(4-fluorophenoxy)benzyl)-1H-inden-3-yl)acetic acid], the inhibition at 3.3 µM is 30 to 50% in assay [1]; under 30% in the assay with HepG2 (liver cancer); 30 to 50% in assay [3]; 30 to 50% in the assay with HeLa (cervical cancer); under 30% in the assay with SW480 (colon cancer); under 30% in assay [4]. Moreover, the inhibition at 3.3 µM in assay [5] was under 30%. Moreover, the inhibition at 10 µM in assay [1] is at least 50%; in assay [2] it was over 80%; with HepG2 (liver cancer), at least 50%; in assay [3], at least 50%; in the assay with HeLa (cervical cancer), at least 50%; with SW480 (colon cancer), at least 50%. Also, the inhibition at 10 µM in assay [4] and in assay [5] was at least 50% in each case.
As for `CC1=C(CC(=O)O)c2cc(C)ccc2/C1=C\c1cccc(Oc2ccccc2)c1` [C17, (Z)-2-(2,5-Dimethyl-1-(3-phenoxybenzylidene)-1H-inden-3-yl)acetic acid], the inhibition at 3.3 µM was under 30% in assay [1]; 30 to 50% in the assay with HepG2 (liver cancer); under 30% in assay [3]; under 30% in the assay on HeLa (cervical cancer); under 30% in the assay with SW480 (colon cancer); 30 to 50% in assay [4]. Also, in assay [5], the inhibition at 3.3 µM is 30 to 50%. In addition, the inhibition at 10 µM in assay [1] was under 30%; in assay [2], over 80%; in the assay with HepG2 (liver cancer), at least 50%; in assay [3], at least 50%; in the assay on HeLa (cervical cancer), 30 to 50%; with SW480 (colon cancer), under 30%. Besides, the inhibition at 10 µM in assay [4] and in assay [5] was at least 50% in each case.
As to `O=C(O)CC1=C(Cc2ccc(Oc3ccc(F)cc3)cc2)/C(=C/c2ccc(C(F)(F)F)cc2)c2ccc(F)cc21` [A108, (Z)-2-(5-Fluoro-2-(4-(4-fluorophenoxy)benzyl)-1-(4-(trifluoromethyl)-benzylidene)-1H-inden-3-yl)acetic acid], the inhibition at 3.3 µM in assay [1] is at least 50%; in the assay on HepG2 (liver cancer), under 30%; in assay [3] it was at least 50%; in the assay on HeLa (cervical cancer) it was under 30%; in the assay on SW480 (colon cancer) it was under 30%; in assay [4], at least 50%. Moreover, in assay [5], the inhibition at 3.3 µM is at least 50%. Moreover, the inhibition at 10 µM in assay [1] is at least 50%; in assay [2], over 80%; in the assay on HepG2 (liver cancer), under 30%; in assay [3], at least 50%; in the assay with HeLa (cervical cancer) it was at least 50%; in the assay with SW480 (colon cancer), at least 50%. Moreover, the inhibition at 10 µM in assay [4] and in assay [5] was at least 50% in each case.
Consider `O=C(O)CC1=C(Cc2ccc(Oc3ccc(F)cc3)cc2)/C(=C/c2ccc(N3CCOCC3)cc2)c2ccc(F)cc21` [A102, (Z)-2-(5-Fluoro-2-(4-(4-fluorophenoxy)benzyl)-1-(4-morpholinobenzylidene)-1H-inden-3-yl)acetic acid], for which the inhibition at 3.3 µM (in assay [1]; in the assay with HepG2 (liver cancer); in assay [3]; with HeLa (cervical cancer); in the assay on SW480 (colon cancer); in assay [4]) was at least 50% throughout. Further, the inhibition at 3.3 µM in assay [5] is at least 50%. Further, the inhibition at 10 µM in assay [1] was at least 50%; in assay [2] it was over 80%; in the assay on HepG2 (liver cancer), at least 50%; in assay [3], at least 50%; with HeLa (cervical cancer) it was at least 50%; in the assay with SW480 (colon cancer), at least 50%. Further, the inhibition at 10 µM in assay [4] and in assay [5] was at least 50% throughout.

(Values after US20260184663A1, “INDENE COMPOUNDS, PHARMACEUTICAL COMPOSITIONS THEREOF, AND THEIR THERAPEUTIC APPLICATIONS” (NucMito Pharmaceuticals co. Ltd., priority 2022, published 2026).)
